Laboratory results reported in paper PMC5962642, “Dynamic imaging of adaptive stress response pathway activation for prediction of drug induced liver injury” (Archives of Toxicology, 2018).
Entries after “also recorded” stand apart in the source; their conditions may differ.

What was measured:
[1] = tested on: CHOP-GFP (ER stress/UPR response); experiment: HepG2 CHOP-GFP BAC reporter, live cell confocal imaging (ER stress/UPR); assay type: cell-based, Human; settings: HepG2 BAC-GFP, 24 h live imaging, 1-100 C-max
Experimental: Image analysis results were stored as HDF5 files. […] For each reporter hourly intensity levels of the GFP signal, the nuclear Hoechst33342 intensity levels and at 24 h the PI staining were measured at the single cell level. In addition, cell numbers, nuclei size and cell motility were measured.
The maximum values over time of the scaled intensity levels and positive GFP fractions were selected for the concentration response curves. […] BMC values were calculated as the concentration at which + 0.25 (and − 0.25 for ICAM1) absolute increase from the initial response values occurred (Fig. 5a).

[2] = ref Chen et al. [2016], cited from earlier work
[3] = tested on: Srxn1-GFP (oxidative stress); experiment: HepG2 Srxn1-GFP BAC reporter, live cell confocal imaging (oxidative stress); assay type: cell-based, Human; settings: HepG2 BAC-GFP, 24 h live imaging, 1-100 C-max
Experimental: (§1) Human hepatoma HepG2 cells were acquired from ATCC (clone HB8065). HepG2 Srxn1, DDIT3 (CHOP), CDKN1A (p21) and ICAM1 BAC GFP reporter cell lines were previously established and characterized (Wink et al. [2017]). HepG2 BAC GFP reporters were maintained and exposed to drugs in DMEM high glucose supplemented with 10% (v/v) FBS, 25 U/mL penicillin and 25 µg/mL streptomycin. The cell lines were used between passage 5 and 25. For live cell imaging, the cells were seeded in Greiner black µ-clear 384 wells plates, at 8000 cells per well.
Accumulation of GFP levels, propodium iodide (PI) and Hoechst staining was monitored using a Nikon TiE2000 confocal laser microscope (lasers 540, 488 and 408 nm), equipped with an automated stage and perfect focus system at 37 °C with humidified atmosphere and 5% CO2/air mixture. All imaging was similar as previously described^5. Each 384-well plate contained one reporter cell line, which was exposed to all the compounds used in the screen at one certain concentration (1, 5, 10, 50 or 100 Cmax); for each concentration at least two replicates were imaged per reporter cell line. For the ICAM1-GFP reporter experiments, cells were first exposed for 8 h to compound only; next, TNFα was added to all wells, up to a final concentration of 10 ng/mL. Directly after TNFα treatment the live cell imaging was started.
Quantitative image analysis was performed with CellProfiler version 2.1.1 (Kamentsky et al. [2011]) with an in house developed CellProfiler module implementing the watershed masked algorithm for segmentation (Yan and Verbeek [2012]; Wink et al. [2017]). Image analysis results were stored as HDF5 files. Data analysis, quality control and graphics were performed using the in house developed R package h5CellProfiler (manuscript in preparation). For each reporter hourly intensity levels of the GFP signal, the nuclear Hoechst33342 intensity levels and at 24 h the PI staining were measured at the single cell level. In addition, cell numbers, nuclei size and cell motility were measured.
GFP intensity cell population means were calculated. In addition, for each plate the cell population mean GFP intensity of the DMSO treated cells was calculated to determine background control values. Per plate, the single cells that had values above the 2X mean, 3X mean were counted resulting in GFP positive fraction measures. For ICAM1, the background control values consisted of DMSO conditions treated with TNFα, and the single cells with values above, as well as below background values were counted. Due to the non-symmetric distribution of ICAM1 cell population GFP intensities, the interquartile range (IQR) was used to count the number of cells 1.5, 2 and 3 times above and below the TNFα IQR control values (Supplemental Fig. 1).
The maximum values over time of the scaled intensity levels and positive GFP fractions were selected for the concentration response curves. These values were fit to a four parameter log-logistic model using the drc package (Ritz et al. [2015]). BMC values were calculated as the concentration at which + 0.25 (and − 0.25 for ICAM1) absolute increase from the initial response values occurred (Fig. 5a).

[4] = tested on: p21-GFP (p53-mediated DNA damage-related response); experiment: HepG2 p21-GFP BAC reporter, live cell confocal imaging (DNA damage); assay type: cell-based, Human; settings: 24 h live imaging, 1-100 C-max
Experimental: as §1
Accumulation of GFP levels, propodium iodide (PI) and Hoechst staining was monitored using a Nikon TiE2000 confocal laser microscope (lasers 540, 488 and 408 nm), equipped with an automated stage and perfect focus system at 37 °C with humidified atmosphere and 5% CO2/air mixture. All imaging was similar as previously described^5. […]
Quantitative image analysis was performed with CellProfiler version 2.1.1 (Kamentsky et al. [2011]) with an in house developed CellProfiler module implementing the watershed masked algorithm for segmentation (Yan and Verbeek [2012]; Wink et al. [2017]). […] For each reporter hourly intensity levels of the GFP signal, the nuclear Hoechst33342 intensity levels and at 24 h the PI staining were measured at the single cell level. In addition, cell numbers, nuclei size and cell motility were measured.
GFP intensity cell population means were calculated. In addition, for each plate the cell population mean GFP intensity of the DMSO treated cells was calculated to determine background control values. Per plate, the single cells that had values above the 2X mean, 3X mean were counted resulting in GFP positive fraction measures. For ICAM1, the background control values consisted of DMSO conditions treated with TNFα, and the single cells with values above, as well as below background values were counted. […]

[5] = C-max obtained from FDA or literature; ref per compound (FDA, Dailymed, Xu, O’Brien, Khetani, Regenthal, Gustafsson, Dawson, Ogutu, Patel, Schmidt, Ravic, Keisu, Hu, Wagner); cited from earlier work
[6] = ref livertox.nih.gov database; cited from earlier work
[7] = tested on: ICAM1-GFP (NF-κB-mediated inflammatory signaling); experiment: HepG2 ICAM1-GFP BAC reporter, TNFα-induced, live cell confocal imaging; assay type: cell-based, Human; settings: for modulation of TNFα-induced ICAM1-GFP response: HepG2 BAC-GFP, 8 h compound then TNFα 10 ng/mL, 24 h live imaging, 1-100 C-max
Experimental: Human hepatoma HepG2 cells were acquired from ATCC (clone HB8065). HepG2 Srxn1, DDIT3 (CHOP), CDKN1A (p21) and ICAM1 BAC GFP reporter cell lines were previously established and characterized (Wink et al. [2017]). […] The cell lines were used between passage 5 and 25. For live cell imaging, the cells were seeded in Greiner black μ-clear 384 wells plates, at 8000 cells per well. […] All imaging was similar as previously described^5. […] Directly after TNFα treatment the live cell imaging was started. Quantitative image analysis was performed with CellProfiler version 2.1.1 ([…] et al. [2011]) with an in house developed CellProfiler module implementing the watershed masked algorithm for segmentation (Yan and Verbeek [2012]; Wink et al. [2017]). Image analysis results were stored as HDF5 files. Data analysis, quality control and graphics were performed using the in house developed R package h5CellProfiler (manuscript in preparation). For each reporter hourly intensity levels of the GFP signal, the nuclear Hoechst33342 intensity levels and at 24 h the PI staining were measured at the single cell level. In addition, cell numbers, nuclei size and cell motility were measured. GFP intensity cell population means were calculated. In addition, for each plate the cell population mean GFP intensity of the DMSO treated cells was calculated to determine background control values. Per plate, the single cells that had values above the 2X mean, 3X mean were counted resulting in GFP positive fraction measures. For ICAM1, the background control values consisted of DMSO conditions treated with TNFα, and the single cells with values above, as well as below background values were counted. […] Linear regression was applied with respect to time to quantify treatment effects on a plate-to-plate basis to quantify cell speed, nuclear size, Hoechst nuclear intensity and cell numbers. […] The maximum values over time of the scaled intensity levels and positive GFP fractions were selected for the concentration response curves. These values were fit to a four parameter log-logistic model using the drc package (Ritz et al. [2015]). BMC values were calculated as the concentration at which + 0.25 (and - 0.25 for ICAM1) absolute increase from the initial response values occurred (Fig. 5a).

In the case of Sc1ncnc2nc[nH]c12 [Mercaptopurine], the CHOP-GFP reporter response [1] is listed as “increased”, the “DILI con. (DILI-concern labeling)” value ([2]; FDA DILI labeling) is listed as “Most-DC” and the “Hepa. (hepatotoxicity class)” value ([2]; FDA labeling in eight classes of hepatotoxicity) is listed as 8. For the same compound, the Srxn1-GFP reporter response [3] was “increased”, the Srxn1-GFP reporter response ([3]; listed as mercaptopurine) was “relatively strong activation; also recorded: mild Srxn1-GFP and ICAM1-GFP activation” and the p21-GFP reporter response [4] was “increased”. The Cmax [5] was 480 nM, the “Metab (metabolic potential)” value [6] was “YES” and the “modulation of TNFα-induced ICAM1-GFP response” value [7] was “increased”. The “modulation of TNFα-induced ICAM1-GFP response” value ([7]; listed as mercaptopurine) was “relatively strong activation; also recorded: mild Srxn1-GFP and ICAM1-GFP activation” and the “point-of-departure (PoD) for ICAM-GFP response relative to onset of SRXN1-GFP response” value ([7]; peak response, concentration series 1-100 C-max) was “at a lower C-max”.
